Measured values from article PMC5218480 (PLoS ONE, 2017).

System: MV-4-11 cells
Test: Gene expression microarray analysis (Affymetrix PrimeView) and GSEA
Format: cell-based, human
Set-up: RFU PODN (11730768_x_at) / Fold change /veh PODN (11730768_x_at) / RFU LINC00158 (11744669_a_at) / Fold change /veh LINC00158 (11744669_a_at) / RFU DUSP10 (11751237_a_at) / Fold change /veh DUSP10 (11751237_a_at) / RFU ID3 (11757404_x_at) / Fold change /veh ID3 (11757404_x_at) / RFU PLEKHG5 (11737974_s_at) / Fold change /veh PLEKHG5 (11737974_s_at) / RFU LRRC4B (11730491_at) / Fold change /veh LRRC4B (11730491_at) / RFU GIMAP4 (11747438_a_at) / Fold change /veh GIMAP4 (11747438_a_at) / RFU KRT8 (11758183_x_at) / Fold change /veh KRT8 (11758183_x_at) / RFU CNN1 (11734310_a_at) / Fold change /veh CNN1 (11734310_a_at) / RFU VPS37D (11726825_at) / Fold change /veh VPS37D (11726825_at) / RFU C10orf10 (11716522_x_at) / Fold change /veh C10orf10 (11716522_x_at) / RFU KIR2DL2 /// KIR2DL4 /// KIR2DL5A /// KIR2DL5B /// KIR2DS1 /// KIR2DS2 /// KIR2DS3 /// KIR2DS4 /// KIR3DL3 /// KIR3DL3 /// KIR3DS1 (11738374_at) / Fold change /veh KIR2DL2 /// KIR2DL4 /// KIR2DL5A /// KIR2DL5B /// KIR2DS1 /// KIR2DS2 /// KIR2DS3 /// KIR2DS4 /// KIR3DL3 /// KIR3DL3 /// KIR3DS1 (11738374_at) / RFU C1QL1 (11718748_at) / Fold change /veh C1QL1 (11718748_at) / RFU TMPRSS4 (11747572_a_at) / Fold change /veh TMPRSS4 (11747572_a_at) / RFU HAMP (11756126_x_at) / Fold change /veh HAMP (11756126_x_at) / RFU RNFT2 (11725882_a_at) / Fold change /veh RNFT2 (11725882_a_at) / RFU NR4A2 (11747474_a_at) / Fold change /veh NR4A2 (11747474_a_at) / RFU ABCC12 (11746883_a_at) / Fold change /veh ABCC12 (11746883_a_at) / RFU TMEM136 (11760407_x_at) / Fold change /veh TMEM136 (11760407_x_at) / RFU CLDN22 /// WWC2 (11732394_at) / Fold change /veh CLDN22 /// WWC2 (11732394_at) / RFU HLA-DPB1 (11760878_x_at) / Fold change /veh HLA-DPB1 (11760878_x_at) / RFU SPINT1 (11716480_a_at) / Fold change /veh SPINT1 (11716480_a_at) / RFU GAP43 (11754022_s_at) / Fold change /veh GAP43 (11754022_s_at) / RFU A4GNT (11735810_at) / Fold change /veh A4GNT (11735810_at) / RFU PRB3 (11715151_x_at) / Fold change /veh PRB3 (11715151_x_at) / RFU TUBB4B (11761932_at) / Fold change /veh TUBB4B (11761932_at) / RFU CAPN14 (11732068_a_at) / Fold change /veh CAPN14 (11732068_a_at) / RFU TMCC2 (11721928_a_at) / Fold change /veh TMCC2 (11721928_a_at) / RFU IRGQ (11745062_a_at) / Fold change /veh IRGQ (11745062_a_at) / RFU FAM174B (11720279_a_at) / Fold change /veh FAM174B (11720279_a_at) / RFU TMPRSS4 (11748680_a_at) / Fold change /veh TMPRSS4 (11748680_a_at) / RFU FAM212B (11763350_a_at) / Fold change /veh FAM212B (11763350_a_at) / RFU PLEKHG5 (11743358_a_at) / Fold change /veh PLEKHG5 (11743358_a_at) / RFU ZSCAN30 (11745921_a_at) / Fold change /veh ZSCAN30 (11745921_a_at) / RFU CMKLR1 (11741424_a_at) / Fold change /veh CMKLR1 (11741424_a_at) / RFU LOC101060620 /// MAPK8IP1 (11723275_at) / Fold change /veh LOC101060620 /// MAPK8IP1 (11723275_at) / RFU SPTSSB (11747773_x_at) / Fold change /veh SPTSSB (11747773_x_at) / RFU PRSS12 (11739890_at) / Fold change /veh PRSS12 (11739890_at) / RFU BIN1 (11741810_x_at) / Fold change /veh BIN1 (11741810_x_at) / RFU WNT11 (11732464_a_at) / Fold change /veh WNT11 (11732464_a_at) / RFU C10orf10 (11716521_a_at) / Fold change /veh C10orf10 (11716521_a_at) / RFU C5orf56 (11738089_at) / Fold change /veh C5orf56 (11738089_at) / RFU CYB561 (11721691_x_at) / Fold change /veh CYB561 (11721691_x_at) / RFU ANKRD19P (11752326_a_at) / Fold change /veh ANKRD19P (11752326_a_at) / RFU OR2T12 /// OR2T33 /// OR2T8 (11738714_s_at) / Fold change /veh OR2T12 /// OR2T33 /// OR2T8 (11738714_s_at) / RFU VCAN (11748164_a_at) / Fold change /veh VCAN (11748164_a_at) / RFU JSRP1 (11732532_at) / Fold change /veh JSRP1 (11732532_at) / RFU KRTAP10-11 (11738290_x_at) / Fold change /veh KRTAP10-11 (11738290_x_at) / RFU MYO3A (11730013_a_at) / Fold change /veh MYO3A (11730013_a_at) / RFU EBF3 (11725865_a_at) / Fold change /veh EBF3 (11725865_a_at) / RFU CAMK2N1 (11719241_x_at) / Fold change /veh CAMK2N1 (11719241_x_at) / RFU C5orf56 (11738088_a_at) / Fold change /veh C5orf56 (11738088_a_at) / RFU OLFML3 (11715873_a_at) / Fold change /veh OLFML3 (11715873_a_at) / RFU LOC100653217 /// NTM (11731650_a_at) / Fold change /veh LOC100653217 /// NTM (11731650_a_at) / RFU MAPK11 (11762145_a_at) / Fold change /veh MAPK11 (11762145_a_at) / RFU FIZ1 (11724087_x_at) / Fold change /veh FIZ1 (11724087_x_at) / RFU OASL (11726364_x_at) / Fold change /veh OASL (11726364_x_at) / RFU SOX15 (11748057_x_at) / Fold change /veh SOX15 (11748057_x_at) / RFU CD79A (11719716_a_at) / Fold change /veh CD79A (11719716_a_at) / RFU HIST1H1D (11736915_at) / Fold change /veh HIST1H1D (11736915_at) / RFU CASKIN2 (11723855_a_at) / Fold change /veh CASKIN2 (11723855_a_at) / RFU LOC730098 (11760151_x_at) / Fold change /veh LOC730098 (11760151_x_at) / RFU OR4N2 (11742367_at) / Fold change /veh OR4N2 (11742367_at) / RFU PRRT2 (11749266_a_at) / Fold change /veh PRRT2 (11749266_a_at) / RFU SNX32 (11753110_a_at) / Fold change /veh SNX32 (11753110_a_at) / RFU CDHR5 (11726645_a_at) / Fold change /veh CDHR5 (11726645_a_at) / RFU RCAN1 (11760418_a_at) / Fold change /veh RCAN1 (11760418_a_at) / RFU FAM167A (11723789_a_at) / Fold change /veh FAM167A (11723789_a_at) / RFU FAM26E (11764081_at) / Fold change /veh FAM26E (11764081_at) / RFU ISYNA1 (11749810_s_at) / Fold change /veh ISYNA1 (11749810_s_at) / RFU ACY1 (11761880_at) / Fold change /veh ACY1 (11761880_at) / RFU 11764098_at / Fold change /veh 11764098_at / RFU SAMD14 (11745864_x_at) / Fold change /veh SAMD14 (11745864_x_at) / RFU NPB (11741838_a_at) / Fold change /veh NPB (11741838_a_at) / RFU TMPRSS6 (11731388_a_at) / Fold change /veh TMPRSS6 (11731388_a_at) / RFU KRTAP10-2 (11738614_at) / Fold change /veh KRTAP10-2 (11738614_at) / RFU ARHGAP8 /// PRR5-ARHGAP8 (11727945_x_at) / Fold change /veh ARHGAP8 /// PRR5-ARHGAP8 (11727945_x_at) / RFU KRTAP5-7 /// NADSYN1 (11734609_at) / Fold change /veh KRTAP5-7 /// NADSYN1 (11734609_at) / RFU RASL12 (11751679_a_at) / Fold change /veh RASL12 (11751679_a_at) / RFU CDKN2B (11736163_a_at) / Fold change /veh CDKN2B (11736163_a_at) / RFU PRF1 (11729649_at) / Fold change /veh PRF1 (11729649_at) / RFU, ZNF638 /// ZNF638-IT1 / Fold change vs veh, ZNF638 /// ZNF638-IT1 / RFU, PANK3 / Fold change vs veh, PANK3 / RFU, SH3YL1 / Fold change vs veh, SH3YL1 / RFU, ZEB2 / Fold change vs veh, ZEB2 / RFU, NRIP1 / Fold change vs veh, NRIP1 / RFU, PTTG1IP / Fold change vs veh, PTTG1IP / RFU, CAPN2 / Fold change vs veh, CAPN2 / RFU, MED14 / Fold change vs veh, MED14 / RFU, SNORA58 / Fold change vs veh, SNORA58 / RFU, C1orf63 / Fold change vs veh, C1orf63 / RFU, LRRFIP1 / Fold change vs veh, LRRFIP1 / RFU, NDUFAF7 / Fold change vs veh, NDUFAF7 / RFU, SLC12A2 / Fold change vs veh, SLC12A2 / RFU, IBTK / Fold change vs veh, IBTK / RFU, ESF1 / Fold change vs veh, ESF1 / Fold change vs veh, TMEM50B / RFU, TAOK1 / Fold change vs veh, TAOK1 / RFU, ACBD3 / Fold change vs veh, ACBD3 / RFU, TMA16 / Fold change vs veh, TMA16 / RFU, RWDD3 / Fold change vs veh, RWDD3 / RFU, BCAT1 / Fold change vs veh, BCAT1 / RFU, EDEM3 / Fold change vs veh, EDEM3 / RFU, TMEM33 / Fold change vs veh, TMEM33 / RFU, WDR75 / Fold change vs veh, WDR75 / RFU, AHCTF1 / Fold change vs veh, AHCTF1 / RFU, TFRC / Fold change vs veh, TFRC / RFU, ZDHHC17 / Fold change vs veh, ZDHHC17 / RFU, NOM1 / Fold change vs veh, NOM1 / RFU, ARL8B / Fold change vs veh, ARL8B / RFU, ZBTB11 / Fold change vs veh, ZBTB11 / RFU, TAMM41 / Fold change vs veh, TAMM41 / RFU, KIAA1704 /// LOC100996395 / Fold change vs veh, KIAA1704 /// LOC100996395 / RFU, ING1 / Fold change vs veh, ING1 / RFU, TRMT61B / Fold change vs veh, TRMT61B / RFU, FUBP3 / Fold change vs veh, FUBP3 / RFU, TP53 / Fold change vs veh, TP53 / RFU, TNKS2 / Fold change vs veh, TNKS2 / RFU, ZFP14 / Fold change vs veh, ZFP14 / RFU, ACTR2 / Fold change vs veh, ACTR2 / RFU, PPP3R1 / Fold change vs veh, PPP3R1 / RFU, PIK3R1 / Fold change vs veh, PIK3R1 / RFU, HNRNPA1 / Fold change vs veh, HNRNPA1 / RFU, RNF170 / Fold change vs veh, RNF170 / RFU, ZNF28 / Fold change vs veh, ZNF28 / RFU, RNGTT / Fold change vs veh, RNGTT / RFU, OGT / Fold change vs veh, OGT / RFU, BRD1 / Fold change vs veh, BRD1 / RFU, MARS / Fold change vs veh, MARS / RFU, ZNF655 / Fold change vs veh, ZNF655 / RFU, FAHD1 / Fold change vs veh, FAHD1 / RFU, BDP1 / Fold change vs veh, BDP1 / RFU, LRRCC1 / Fold change vs veh, LRRCC1 / RFU, ARID1A / Fold change vs veh, ARID1A / RFU, ZNF146 / Fold change vs veh, ZNF146 / RFU, ZNF330 / Fold change vs veh, ZNF330 / RFU, GPN3 / Fold change vs veh, GPN3 / RFU, C9orf123 / Fold change vs veh, C9orf123 / RFU, N4BP2L2 / Fold change vs veh, N4BP2L2 / RFU, ARFIP1 / Fold change vs veh, ARFIP1 / RFU, FAM179B / Fold change vs veh, FAM179B / RFU, BCL10 / Fold change vs veh, BCL10 / RFU, UHRF1BP1L / Fold change vs veh, UHRF1BP1L / RFU, BET1 / Fold change vs veh, BET1 / RFU, CNOT2 / Fold change vs veh, CNOT2 / RFU, ZNF268 / Fold change vs veh, ZNF268 / Fold change vs veh, ZNF507 / RFU, DGCR2 / Fold change vs veh, DGCR2 / RFU, WDSUB1 / Fold change vs veh, WDSUB1 / Fold change vs veh, HSP90B1 /// MIR3652 / RFU, ADSS / Fold change vs veh, ADSS / RFU, GK / Fold change vs veh, GK / RFU, ZNF148 / Fold change vs veh, ZNF148 / RFU, TAF9 / Fold change vs veh, TAF9 / RFU, SLC1A5 / Fold change vs veh, SLC1A5 / RFU, SLMO2 / Fold change vs veh, SLMO2 / RFU, ABCC4 / Fold change vs veh, ABCC4 / RFU, LOC101060439 /// RAP1B / Fold change vs veh, LOC101060439 /// RAP1B / RFU, RFX7 / Fold change vs veh, RFX7 / RFU, GTPBP10 / Fold change vs veh, GTPBP10 / RFU, CNEP1R1 / Fold change vs veh, CNEP1R1 / RFU, BIVM-ERCC5 /// ERCC5 / Fold change vs veh, BIVM-ERCC5 /// ERCC5 / RFU, ILF3 / Fold change vs veh, ILF3 / RFU 11762660_at / Fold change /veh 11762660_at / RFU VCAN (11757783_s_at) / Fold change /veh VCAN (11757783_s_at) / RFU DDX43 (11728927_at) / Fold change /veh DDX43 (11728927_at) / RFU KRT8 (11758188_x_at) / Fold change /veh KRT8 (11758188_x_at) / RFU NKD1 (11759106_at) / Fold change /veh NKD1 (11759106_at) / RFU SRD5A1 (11742802_a_at) / Fold change /veh SRD5A1 (11742802_a_at) / RFU TPSAB1 /// TPSB2 (11721975_s_at) / Fold change /veh TPSAB1 /// TPSB2 (11721975_s_at) / RFU GSTM3 (11746129_a_at) / Fold change /veh GSTM3 (11746129_a_at) / RFU IL23R (11737362_x_at) / Fold change /veh IL23R (11737362_x_at) / RFU TMEM51 (11727254_a_at) / Fold change /veh TMEM51 (11727254_a_at) / RFU PIWIL2 (11732686_x_at) / Fold change /veh PIWIL2 (11732686_x_at) / RFU ORM1 (11744905_x_at) / Fold change /veh ORM1 (11744905_x_at) / RFU CCDC152 (11743942_at) / Fold change /veh CCDC152 (11743942_at) / RFU ECM1 (11717891_a_at) / Fold change /veh ECM1 (11717891_a_at) / RFU IL23R (11748794_a_at) / Fold change /veh IL23R (11748794_a_at) / RFU TNFAIP8L3 (11732012_x_at) / Fold change /veh TNFAIP8L3 (11732012_x_at) / RFU MBOAT4 (11741988_at) / Fold change /veh MBOAT4 (11741988_at) / RFU 11764193_at / Fold change /veh 11764193_at / RFU TMEM53 (11763286_at) / Fold change /veh TMEM53 (11763286_at) / RFU MAGEB2 (11727129_at) / Fold change /veh MAGEB2 (11727129_at) / RFU TMEM200A (11744735_a_at) / Fold change /veh TMEM200A (11744735_a_at) / RFU CCDC152 (11751479_a_at) / Fold change /veh CCDC152 (11751479_a_at) / RFU FAM211A (11726209_a_at) / Fold change /veh FAM211A (11726209_a_at) / RFU RGS16 (11746705_a_at) / Fold change /veh RGS16 (11746705_a_at) / RFU VCAN (11755009_s_at) / Fold change /veh VCAN (11755009_s_at) / RFU RHOB (11743442_s_at) / Fold change /veh RHOB (11743442_s_at) / RFU RGS16 (11720943_a_at) / Fold change /veh RGS16 (11720943_a_at) / RFU RGS16 (11720944_at) / Fold change /veh RGS16 (11720944_at) / RFU, VPS4B / Fold change vs veh, VPS4B / RFU, CREB1 / Fold change vs veh, CREB1 / RFU, DNAJC13 / Fold change vs veh, DNAJC13 / RFU, GNAQ / Fold change vs veh, GNAQ / RFU, CDK5R1 / Fold change vs veh, CDK5R1 / RFU, ZRANB3 / Fold change vs veh, ZRANB3 / RFU, CUL4A / Fold change vs veh, CUL4A / RFU, CCNY / Fold change vs veh, CCNY / RFU, UFL1 / Fold change vs veh, UFL1 / RFU, COG3 / Fold change vs veh, COG3 / RFU, DIAPH2 / Fold change vs veh, DIAPH2 / RFU, SKA2 / Fold change vs veh, SKA2 / RFU, AFF3 / Fold change vs veh, AFF3 / RFU, LMF1 / Fold change vs veh, LMF1 / RFU, IPO11 / Fold change vs veh, IPO11 / RFU, DFFB / Fold change vs veh, DFFB / RFU, FOXP1 / Fold change vs veh, FOXP1 / RFU, CARD8 / Fold change vs veh, CARD8 / RFU, STRN3 / Fold change vs veh, STRN3 / RFU, ADK / Fold change vs veh, ADK / RFU, RASSF2 / Fold change vs veh, RASSF2 / RFU, WIPF1 / Fold change vs veh, WIPF1 / RFU, LARP1B / Fold change vs veh, LARP1B / RFU, RASA1 / Fold change vs veh, RASA1 / RFU, RB1 / Fold change vs veh, RB1 / RFU, PPFIA1 / Fold change vs veh, PPFIA1 / RFU, MAT2A / Fold change vs veh, MAT2A / RFU, CCT5 / Fold change vs veh, CCT5 / RFU, WDR92 / Fold change vs veh, WDR92 / RFU, CUX1 / Fold change vs veh, CUX1 / RFU, TTC7A / Fold change vs veh, TTC7A / RFU, TMEM135 / Fold change vs veh, TMEM135 / RFU, DEPTOR / Fold change vs veh, DEPTOR / RFU, CPM / Fold change vs veh, CPM / RFU, DNAJB6 / Fold change vs veh, DNAJB6 / RFU, CACNA2D3 / Fold change vs veh, CACNA2D3 / RFU, DTX4 / Fold change vs veh, DTX4 / RFU, TFCP2 / Fold change vs veh, TFCP2 / RFU, GMCL1 /// GMCL1P1 / Fold change vs veh, GMCL1 /// GMCL1P1 / RFU, AEBP2 / Fold change vs veh, AEBP2 / RFU, SNHG1 /// SNORD22 /// SNORD25 /// SNORD26 /// SNORD27 /// SNORD28 /// SNORD29 /// SNORD31 / Fold change vs veh, SNHG1 /// SNORD22 /// SNORD25 /// SNORD26 /// SNORD27 /// SNORD28 /// SNORD29 /// SNORD31 / Fold change (Aza/veh), C12orf56 (ProbeSet 11735607_a_at) / Fold change (ACY-1035/veh), C12orf56 (ProbeSet 11735607_a_at) / Fold change (Aza/veh), FGFR1OP (ProbeSet 11751329_s_at) / Fold change (ACY-1035/veh), FGFR1OP (ProbeSet 11751329_s_at) / Fold change (Aza/veh), VPS36 (ProbeSet 11739960_a_at) / Fold change (ACY-1035/veh), VPS36 (ProbeSet 11739960_a_at) / RFU SYPL1 (11715823_x_at) / Fold change /veh SYPL1 (11715823_x_at) / RFU IGFBP7 (11715501_s_at) / Fold change /veh IGFBP7 (11715501_s_at) / RFU REEP3 (11722064_at) / Fold change /veh REEP3 (11722064_at) / RFU IGLL1 (11728026_x_at) / Fold change /veh IGLL1 (11728026_x_at): dose or concentration left out as unconfirmed
Settings: ProbeSet 11721559_s_at; LIST B

Nc1ncn([C@@H]2O[C@H](CO)[C@@H](O)[C@H]2O)c(=O)n1 [azacitidine]
RFU, ZNF638 /// ZNF638-IT1: 347.20 RFU
